Data taken from publication PMC11796366 (mBio, 2024).

Target: T1, BumS (WT BumS-Myc-6XHis) (Campylobacter jejuni, UniProt Z9AJU0DEG1)
T1 construct: gene CJJ81176_1484; second to penultimate codon, C-terminal Myc-6XHis tag kept (pBAD/Myc-HisA, pNR251), expressed in E. coli TOP10; cytoplasmic, N-terminal PAS domain (about residues 1-120)
T1 sequence (Z9AJU0DEG1 2-403): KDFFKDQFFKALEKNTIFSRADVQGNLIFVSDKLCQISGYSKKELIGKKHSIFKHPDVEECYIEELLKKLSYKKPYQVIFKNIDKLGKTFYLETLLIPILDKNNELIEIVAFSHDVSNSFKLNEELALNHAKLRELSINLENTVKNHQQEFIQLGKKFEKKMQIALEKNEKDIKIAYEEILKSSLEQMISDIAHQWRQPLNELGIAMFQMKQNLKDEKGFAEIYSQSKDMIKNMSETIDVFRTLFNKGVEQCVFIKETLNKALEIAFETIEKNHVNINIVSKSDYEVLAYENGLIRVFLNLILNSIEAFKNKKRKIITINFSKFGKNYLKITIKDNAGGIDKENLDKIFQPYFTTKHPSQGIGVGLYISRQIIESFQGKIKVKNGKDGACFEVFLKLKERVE
Assay: CD thermal melt at […] nm
Type: binding
Conditions: […]; […] HEPES, […] NaSO4, […] glycerol; […]-95 °C

With `CC(C)C(=O)O` [isobutyrate] the “Tm,app” value was “isobutyrate and isovalerate had a net destabilizing effect on the thermostability of BumS”.
